{"source": "patent US20110294843A1", "about": "“ADMINISTRATION SCHEME OF POLAR OPIOID METABOLITES FOR POST-OPERATIVE PAIN MANAGEMENT” (PAION UK Limited, priority 2008, published 2011)", "key": {"μ-opioid receptor": {"biological_target": "μ-opioid receptor (Homo sapiens, UniProt P35372)", "sequence (P35372 whole entry, species assumed)": "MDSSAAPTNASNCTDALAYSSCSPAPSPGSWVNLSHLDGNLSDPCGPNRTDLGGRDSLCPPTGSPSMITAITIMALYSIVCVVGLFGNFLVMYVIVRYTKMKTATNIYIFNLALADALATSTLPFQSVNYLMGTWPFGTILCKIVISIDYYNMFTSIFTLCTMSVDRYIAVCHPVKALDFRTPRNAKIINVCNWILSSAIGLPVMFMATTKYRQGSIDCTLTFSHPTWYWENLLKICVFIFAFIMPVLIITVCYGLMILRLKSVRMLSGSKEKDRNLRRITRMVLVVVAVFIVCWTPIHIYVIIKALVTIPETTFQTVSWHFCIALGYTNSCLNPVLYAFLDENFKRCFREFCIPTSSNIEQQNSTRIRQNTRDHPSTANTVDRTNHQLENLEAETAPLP", "settings": "cited from earlier work"}, "[1]": {"test_system": "patients following major abdominal surgery", "test": "M6G022 study: analgesic efficacy and tolerability of M6G and morphine following major abdominal surgery", "method": "Pain relief, nausea and emesis were recorded for 24 to 48 hours after start of the patient controlled analgesia.\nThe study site personnel (with the exception of the pharmacy); representatives of the sponsoring company; and the organisation involved in monitoring, data management, or other aspects of the study were blinded to the study treatment. The use of midazolam, temazepam, zopiclone or other short-acting pre-operative anxiolytics was allowed. All patients received a standardised general anaesthetic consisting of propofol induction, with either isoflurane or sevoflurane maintenance. These inhalational agents are associated with a similar risk of PONV. Nitrous oxide was not allowed because of its emetic effects, and the risk of an imbalance in its use. An initial bolus of 1-3 μg/kg of fentanyl or 0.1-0.3 μg/kg of sufentanyl followed by further doses as required, was used for pre- and peri-operative analgesia. Post-operative analgesia was provided by the study drug.\nThe investigator could administer up to 5 ml of PCA study drug, on no more than two occasions in each 24 hour post-operative period, as rescue medication if the patient was in uncontrolled pain. […] The patients stayed on PCA for a minimum of 24 hours following surgery, but could continue up to 48 hours if clinically indicated.\nNo prophylactic antiemetic was given, although iv ondansetron (4 mg/2 ml) was available if the patient experienced severe nausea, or immediately following emesis. If this was ineffective further doses of ondansetron; or other agents such as cyclizine, prochlorperazine or perphenazine; were allowed.\nPain intensity at rest was assessed by the patients using the VRS-11 scale at baseline, 15, 30 and 45 minutes and 1, 2, 4, 6, 9, 12, 15, 18, 21 and 24 hours after the start of PCA. A numerical scale was chosen because of the practical difficulty for post-operative patients of completing a visual analogue scale. If the patient remained on PCA after 24 hours, the pain scores were recorded every 8 hours up to 48 hours. In addition, at the end of the study the patients and observers were asked to assess the acceptability of their pain relief over the entire study using a 5 point rating global scale ranging from very poor (1) to excellent (5). […] The total consumption of study drugs was calculated.\nEmesis risk factors of female gender; history of motion sickness or PONV; or smoking status were recorded at screening. Post-operative nausea was assessed by the patient using a 4 point ordinal scale (none, mild, moderate, severe) and occurrence of vomiting or dry retching recorded (yes/no; and if yes, the number of episodes) pre-operatively (Day −1), at baseline, and at 1, 2, 4, 6, 9, 12, 15, 18, 21, 24, 32, 40 and 48 hours after administration of the test analgesic. Nausea and vomiting were also combined in a single scoring system (postoperative nausea & vomiting, PONV), with an episode of vomiting or dry retching being scored as a 3 (severe) on the nausea scale.\nSedation was assessed using a combination of a binary question (sleepy, yes or no) and a 3 point ordinal scale (mild, moderate, severe) if the patient was sedated. All adverse events were recorded, along with concomitant medication use, with particular attention being paid to the use of anti-emetics.\nThe Intention to Treat (ITT) set of patients comprised all those who had been exposed to study medication at least once. This analysis set was the basis for the main efficacy and all safety and demographic analyses. Data were double entered using interactive verification into a CLINTRIAL database (Version 3.3.3, Phase Forward, Waltham, Mass., USA), and analysed using SAS (version 8.2, SAS Institute Inc., Cary, N.C., USA)."}, "[2]": {"test_system": "patients following hip-replacement surgery", "test": "M6G012 study: acute pain following hip-replacement surgery under general anaesthetic", "assay_type": "in vivo, human", "settings": "30 mg/70 kg at skin closure, four hour post-operative period"}, "[3]": {"settings": "prior experimental human and clinical studies; cited from earlier work"}, "[4]": {"test_system": "patients following total knee-replacement surgery", "test": "M6G015 study: pain following total knee-replacement surgery", "assay_type": "in vivo, human", "settings": "10, 20, 30 mg/70 kg slow IV, PCA morphine allowed", "method": "Patients received a single dose of study treatment 150 minutes after the administration of the nerve block. […] The complete study has recently been reported by Dahan et al. (Eur J Pain, 2008; 12(4): 403-411)."}, "[5]": {"test": "Partition coefficient (logP) between aqueous buffer and octanol", "settings": "phosphate/n-octanol", "text": "As stated above, the opioid metabolites according to the invention are polar metabolites. As understood hereinafter the term “polar” means a higher polarity as compared to the unpolar moφhine. The polar nature of a compound can be determined by measuring its partition coefficient between an aqueous buffer and an organic solvent such as octanol. […] This depends on the specific system."}, "[6]": {"test_system": "patients following hip-replacement surgery", "test": "M6G001A study: post-operative analgesia following hip-replacement surgery", "assay_type": "in vivo, human", "settings": "all doses (10, 15, 20 mg/70 kg IV bolus followed by PCA)", "text": ". This was a double-blind, randomised study. […]"}}}
{"compound": "CN1CC[C@]23c4c5ccc(O)c4O[C@H]2[C@@H](OC2OC(C(=O)O)C(O)C(O)C2O)C=CC3[C@H]1C5", "note": "(stereo partly drawn) [M6G, (5α,6α)-7,8-Didehydro-4,5-epoxy-3-hydroxy-17-methylmorphinan-β-yl-β-D-glucopyranosiduronic acid]", "values": [{"measurement": "affinity for the μ-opioid receptor compared with morphine", "setting": "μ-opioid receptor", "result": "comparable affinity"}, {"measurement": "reduction of AUC for vomiting and dry retching in favour of M6G", "setting": "[1]; 0-24 hours", "result": 32.3, "unit": "%"}, {"measurement": "mean totals of PCA demands", "setting": "[1]; 4-48 h", "result": 53.1}, {"measurement": "reduction of AUC for vomiting and dry retching in favour of M6G", "setting": "[1]; 6-24 hours", "result": 34.2, "unit": "%"}, {"measurement": "Reduction of PONV AUC, M6G vs morphine", "setting": "[1]; AUC 0-6 h", "result": 27.0, "unit": "%"}, {"measurement": "Reduction of PONV AUC, M6G vs morphine", "setting": "[1]; AUC 0-12 h", "result": 26.3, "unit": "%"}, {"measurement": "Reduction of PONV AUC, M6G vs morphine", "setting": "[1]; AUC 0-24 h", "result": 24.3, "unit": "%"}, {"measurement": "Reduction of PONV AUC, M6G vs morphine", "setting": "[1]; AUC 6-24 h", "result": 28.5, "unit": "%"}, {"measurement": "Reduction of PONV AUC, M6G vs morphine", "setting": "[1]; AUC 12-24 h", "result": 24.5, "unit": "%"}, {"measurement": "Reduction of PONV AUC, M6G vs morphine", "setting": "[1]; AUC 24-48 h", "result": 10.3, "unit": "%"}, {"measurement": "patients with sedation score recorded as severe", "setting": "[1]; baseline", "result": 20.9, "unit": "%"}, {"measurement": "patients sedated", "setting": "[1]; baseline (when given control of the PCA button)", "result": 75.7, "unit": "%"}, {"measurement": "mean totals of PCA demands", "setting": "[1]; early post-operative period (up to 4 hours)", "result": 33.5}, {"measurement": "magnitude of reduction of PONV", "setting": "[1]; initial 24 hours post-operatively", "result": "24-29%"}, {"measurement": "dose required to achieve comfort initially", "setting": "[1]; loading and recovery doses before PCA", "result": 45.0, "unit": "mg/70 kg"}, {"measurement": "difference between the adjusted means of pain intensity AUCs for M6G and morphine", "setting": "[1]; over the 24 hours, VRS-11", "result": "+3.318"}, {"measurement": "pain intensity compared with morphine", "setting": "[1]; whole 24 hour period", "result": "non-inferior to morphine"}, {"measurement": "pain (VAS) compared with 10 mg/70 kg morphine at skin closure", "setting": "[2]", "result": "non-inferior"}, {"measurement": "potency ratio morphine and M6G", "setting": "[3]", "result": "3 to 1"}, {"measurement": "patients' opinion of pain relief compared with placebo", "setting": "[4]", "result": "no statistically significant differences"}, {"measurement": "logP", "setting": "[5]", "result": -2.4}, {"measurement": "tolerability", "setting": "[6]", "result": "well tolerated"}]}
